*1 amine or outer side, *2 acyl side, *3 side chain or, on linkers, in order; H or OH if unused. Where a SMILES comes first, the peptide text is derived from it. Side-chain parts run from the residue outwards. [ ]: non-standard residue; d: D form. The star is where a group is joined. γGlu = O=C(O)[C@H](CCC(=O)[*:2])N[*:1]; Suc = O=C(CCC(=O)[*:2])[*:1]; Pentanoyl = CCCCC(=O)*; Aib = CC(C)(N)C(=O)O
Experiments:
[1] = ThT fibrillation assay for physical stability (lag time, recovery); type: physicochemical; details: absence of increased ThT fluorescence noted as lag time of 45 hours
Description: This has traditionally been measured by visual inspection of the sample. However, that kind of measurement is very subjective and depending on the observer. Therefore, the application of a small molecule indicator probe is much more advantageous. […] Enzymol.
Here, F is the ThT fluorescence at the time t.
The lag-time corresponds to the interval in which the critical mass of nucleus is built up and the apparent rate constant is the rate with which the fibril itself is formed.
Samples were prepared freshly before each assay. […] The pH of the sample was adjusted to the desired value using appropriate amounts of concentrated NaOH and HCl.
The plate was sealed with Scotch Pad (Qiagen).
Each run was initiated by incubating the plate at the assay temperature for 10 min. The plate was measured every 20 minutes for a desired period of time. Between each measurement, the plate was shaken and heated as described.
The supernatant was filtered through a 0.22 μm filter and an aliquot was transferred to a HPLC vial.
The data set may be fitted to Eq. (1).

glucagon receptor = biological target: T1, glucagon receptor (Homo sapiens, UniProt P47871); test: Assay (I) Glucagon activity (cAMP biosensor, FLIPR); type: cell-based; details: HEK-293 cells with cloned glucagon receptor and cAMP biosensor; end point after 6 minutes
T1 construct: expressed in transfected cells
How it was run: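 HEK-293 cells expressing glucagon receptor with membrane cAMP biosensor (ACTOne), calcium-dye loaded with probenecid and a PDE inhibitor.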

T1 sequence (P47871 26-477): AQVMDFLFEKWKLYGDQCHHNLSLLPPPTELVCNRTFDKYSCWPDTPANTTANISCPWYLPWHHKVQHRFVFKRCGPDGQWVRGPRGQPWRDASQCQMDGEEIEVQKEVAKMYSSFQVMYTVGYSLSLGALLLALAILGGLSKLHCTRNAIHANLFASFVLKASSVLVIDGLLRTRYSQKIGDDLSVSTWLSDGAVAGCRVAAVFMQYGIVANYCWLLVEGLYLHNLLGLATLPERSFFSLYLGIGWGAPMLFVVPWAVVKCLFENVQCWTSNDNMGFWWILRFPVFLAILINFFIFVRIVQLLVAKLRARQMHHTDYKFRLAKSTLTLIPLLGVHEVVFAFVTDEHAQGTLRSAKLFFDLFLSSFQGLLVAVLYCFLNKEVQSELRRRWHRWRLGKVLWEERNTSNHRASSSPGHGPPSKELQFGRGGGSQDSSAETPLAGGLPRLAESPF

EC50 (glucagon receptor)	Compound	ThT assay [Lag time] [1]
0.02 nM	CC(C)C[C@H](NC(=O)[C@H](CC(=O)O)NC(=O)[C@H](CC(C)C)NC(=O)[C@H](Cc1ccc(O)cc1)NC(=O)[C@H](CCCNC(=N)N)NC(=O)[C@H](CO)NC(=O)[C@H](Cc1ccc(O)cc1)NC(=O)[C@H](CC(=O)O)NC(=O)[C@H](CO)NC(=O)[C@@H](NC(=O)[C@H](Cc1ccccc1)NC(=O)[C@@H](NC(=O)CNC(=O)[C@H](CCC(N)=O)NC(=O)[C@H](CO)NC(=O)[C@@H](N)Cc1c[nH]cn1)[C@@H](C)O)[C@@H](C)O)C(=O)N[C@@H](CCCNC(=N)N)C(=O)N[C@@H](CCCNC(=N)N)C(=O)N[C@@H](C)C(=O)N[C@@H](C)C(=O)N[C@@H](CC(=O)O)C(=O)N[C@@H](Cc1ccccc1)C(=O)N[C@H](C(=O)N[C@@H](CCCCNC(=O)CC[C@H](NC(=O)CC[C@H](NC(=O)CC[C@H](NC(=O)CC[C@H](NC(=O)CCC(=O)O)C(=O)O)C(=O)O)C(=O)O)C(=O)O)C(=O)N[C@@H](Cc1c[nH]c2ccccc12)C(=O)N[C@@H](CC(C)C)C(=O)N[C@@H](CC(C)C)C(=O)N[C@@H](CO)C(=O)N[C@H](C(=O)O)[C@@H](C)O)C(C)C [Example 66, N^ε24-[(4S)-4-carboxy-4-[[(4S)-4-carboxy-4-[[(4S)-4-carboxy-4-[[(4S)-4-carboxy-4-(3-carboxypropanoylamino)butanoyl]amino]butanoyl]amino]butanoyl]amino]butanoyl]-[Arg^12,Leu^16,Ala^20,Lys^24,Leu^27,Ser^28]-Glucagon] (H-HSQGTFTSDYSRYLDLRRAADFVK([γGlu-γGlu-γGlu-γGlu-Suc])WLLST-OH)	–
0.022 nM	CCCCC(=O)N[C@@H](CCC(=O)N[C@@H](CCC(=O)N[C@@H](CCC(=O)N[C@@H](CCC(=O)NCCCC[C@H](NC(=O)[C@@H](NC(=O)[C@H](Cc1ccccc1)NC(=O)[C@H](CC(=O)O)NC(=O)[C@H](C)NC(=O)[C@H](C)NC(=O)[C@H](CCCNC(=N)N)NC(=O)[C@H](CCCNC(=N)N)NC(=O)[C@H](CC(C)C)NC(=O)[C@H](CC(=O)O)NC(=O)[C@H](CC(C)C)NC(=O)[C@H](Cc1ccc(O)cc1)NC(=O)[C@H](CCCNC(=N)N)NC(=O)[C@H](CO)NC(=O)[C@H](Cc1ccc(O)cc1)NC(=O)[C@H](CC(=O)O)NC(=O)[C@H](CO)NC(=O)[C@@H](NC(=O)[C@H](Cc1ccccc1)NC(=O)[C@@H](NC(=O)CNC(=O)[C@H](CCC(N)=O)NC(=O)[C@H](CO)NC(=O)[C@@H](N)Cc1c[nH]cn1)[C@@H](C)O)[C@@H](C)O)C(C)C)C(=O)N[C@@H](Cc1c[nH]c2ccccc12)C(=O)N[C@@H](CC(C)C)C(=O)N[C@@H](CC(C)C)C(=O)N[C@@H](CO)C(=O)N[C@H](C(=O)O)[C@@H](C)O)C(=O)O)C(=O)O)C(=O)O)C(=O)O [Example 67] (H-HSQGTFTSDYSRYLDLRRAADFVK([γGlu-γGlu-γGlu-γGlu-Pentanoyl])WLLST-OH)	–

Compound	EC50 (glucagon receptor)	ThT assay [Lag time] [1]
CC(=O)N[C@@H](CCC(=O)N[C@@H](CCC(=O)N[C@@H](CCC(=O)N[C@@H](CCC(=O)NCCCC[C@H](NC(=O)[C@@H](NC(=O)[C@H](Cc1ccccc1)NC(=O)[C@H](CCC(=O)O)NC(=O)[C@H](C)NC(=O)[C@H](C)NC(=O)[C@H](CCCNC(=N)N)NC(=O)[C@H](CCCNC(=N)N)NC(=O)[C@@H](NC(=O)[C@H](CC(=O)O)NC(=O)[C@H](CC(C)C)NC(=O)[C@H](Cc1ccc(O)cc1)NC(=O)[C@H](CCCCN)NC(=O)[C@H](CO)NC(=O)[C@H](Cc1ccc(O)cc1)NC(=O)[C@H](CC(=O)O)NC(=O)[C@H](CO)NC(=O)[C@@H](NC(=O)[C@H](Cc1ccccc1)NC(=O)[C@@H](NC(=O)CNC(=O)[C@H](Cc1c[nH]cn1)NC(=O)C(C)(C)NC(=O)[C@@H](N)Cc1c[nH]cn1)[C@@H](C)O)[C@@H](C)O)C(C)C)C(C)C)C(=O)N[C@@H](Cc1c[nH]c2ccccc12)C(=O)N[C@@H](CC(C)C)C(=O)N[C@@H](CC(C)C)C(=O)N[C@@H](CO)C(=O)N[C@H](C(=O)O)[C@@H](C)O)C(=O)O)C(=O)O)C(=O)O)C(=O)O [Example 48, N^ε24-[(4S)-4-[[(4S)-4-[[(4S)-4-[[(4S)-4-acetamido-4-carboxybutanoyl]amino]-4-carboxybutanoyl]amino]-4-carboxybutanoyl]amino]-4-carboxybutanoyl]-[Aib^2,His^3,Val^16,Ala^20,Glu^21,Lys^24,Leu^27,Ser^28]-Glucagon] (H-H[Aib]HGTFTSDYSKYLDVRRAAEFVK([γGlu-γGlu-γGlu-γGlu-Ac])WLLST-OH)	0.005 nM	14 h

From patent publication US20140031278A1, “Novel Glucagon Analogues” (NOVO NORDISK A/S, priority 2011, published 2014)
